Test results reported in patent publication US6525059B1, “Substituted pyrazoles as p38 kinase inhibitors” (G. D. Searle & Company, priority 1998, dated 2003).

Tests used:
human p38 kinase alpha = target: T1, human p38 kinase alpha (Homo sapiens, UniProt Q16539); assay: p38 kinase in vitro assay, phosphorylation of biotinylated PHAS-I with gamma 32P-ATP; type: biochemical; settings: for inhibition at 1 µM / inhibition at 10 µM: read-out: P38 alpha kinase % inhib @ conc.; for IC50: read-out: P38 alpha kinase IC50
T1 construct: The coding region of the human p38a cDNA was obtained by PCR-amplification from RNA isolated from the human monocyte cell line THP.1; GST (N); made in house; host or cells: E. coli DH10B
Method in brief: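 MKK6-activated human p38α phosphorylates biotinylated PHAS-I with γ-32P-ATP in 25 mM HEPES pH 7.5, 10 mM Mg acetate, 50 μM unlabeled ATP, 1% DMSO, 30 °C for 1 h or overnight. Compounds at 100–0.001 μM (10-fold steps, triplicate); substrate captured on streptavidin filter plates and counted by scintillation.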

TNF-α = assay: LPS stimulation of TNF production by U937 cells; type: cell-based, human; settings: for inhibition at 1 µM / IC50: Homo sapiens; for inhibition at 1 µM: U-937, @ 1.0 uM, read-out: U937 Cell % inhib @ conc.; for IC50: U-937, TNF production, LPS-stimulated human U937 cells, read-out: U937 Cell IC50
Method: Fifty million cells in 100 ml media were induced to terminal monocytic differentiation by 24 hour incubation with 20 ng/ml phorbol 12-myristate 13-acetate (Sigma). The cells were washed by centrifugation (200×g for 5 min) and resuspended in 100 ml fresh medium. After 24-48 hours, the cells were harvested, centrifuged, and resuspended in culture medium at 2 million cells/ml.
Compounds were prepared as 10 mM stock solutions in DMSO and diluted in culture medium to yield a final DMSO concentration of 0.1% in the cell assay. LPS (E coli, 100 ng/ml final concentration) was then added at a volume of 0.02 ml. After 4 hour incubation at 37° C., the amount of TNF-α released in the culture medium was quantitated by ELISA. Inhibitory potency is expressed as IC50 (μM).
In vitro whole cell assay for measuring the ability of the compounds to inhibit TNF production in human U937 cells stimulated with LPS are shown in the column identified as: […]

T1 sequence (Q16539 whole entry): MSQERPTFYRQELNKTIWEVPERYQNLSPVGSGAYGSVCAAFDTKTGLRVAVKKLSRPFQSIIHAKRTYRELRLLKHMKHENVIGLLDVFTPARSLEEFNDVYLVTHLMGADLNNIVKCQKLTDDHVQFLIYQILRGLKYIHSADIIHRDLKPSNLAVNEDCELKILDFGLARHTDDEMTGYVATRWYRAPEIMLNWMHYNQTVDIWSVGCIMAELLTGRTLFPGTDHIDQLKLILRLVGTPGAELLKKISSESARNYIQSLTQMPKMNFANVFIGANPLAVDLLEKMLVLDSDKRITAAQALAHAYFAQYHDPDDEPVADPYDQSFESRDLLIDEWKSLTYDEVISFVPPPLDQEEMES

SMILES | inhibition at 1 µM (TNF-α) [%] | IC50 (human p38 kinase alpha) [µM] | further results
O=C(NCc1[nH]nc(-c2ccc(F)cc2)c1-c1ccncc1)N[C@@H]1C[C@@H]1c1ccccc1 [Example B-0153] | 21 | – | inhibition at 1 µM (human p38 kinase alpha): 57%
CCOC(=O)c1cccc(NC(=O)NCc2[nH]nc(-c3ccc(F)cc3)c2-c2ccncc2)c1 [Example B-0154] | 14 | – | inhibition at 10 µM (human p38 kinase alpha; @ 10.0 uM): 65%
CCCCCc1ccc(NC(=O)NCc2[nH]nc(-c3ccc(F)cc3)c2-c2ccncc2)cc1 [Example B-0156] | – | – | P38 alpha kinase % inhib @ conc. (human p38 kinase alpha; @ 10.0 uM): 42.0% @ 10.0 uM; U937 Cell % inhib @ conc. (TNF-α; @ 1.0 uM): 13.0% @ 1.0 uM
O=C(NCCc1ccccc1)NCc1[nH]nc(-c2ccc(F)cc2)c1-c1ccncc1 [Example B-0157] | 9 | – | inhibition at 10 µM (human p38 kinase alpha; @ 10.0 uM): 48%
CCOC(=O)c1ccc(NC(=O)NCc2[nH]nc(-c3ccc(F)cc3)c2-c2ccncc2)cc1 [Example B-0161] | 13 | – | inhibition at 10 µM (human p38 kinase alpha; @ 10.0 uM): 72%
O=C(NCc1[nH]nc(-c2ccc(F)cc2)c1-c1ccncc1)Nc1ccc(C(F)(F)F)cc1 [Example B-0163] | 10 | – | inhibition at 10 µM (human p38 kinase alpha; @ 10.0 uM): 20%
O=C(NCc1[nH]nc(-c2ccc(F)cc2)c1-c1ccncc1)Nc1cc(Cl)cc(Cl)c1 [Example B-0164] | 20 | – | inhibition at 10 µM (human p38 kinase alpha; @ 10.0 uM): 37%
Cc1cccc(C)c1NC(=O)NCc1[nH]nc(-c2ccc(F)cc2)c1-c1ccncc1 [Example B-0168] | – | – | inhibition at 1 µM (human p38 kinase alpha): 44%; IC50 (TNF-α): 2.36 µM
CCc1ccccc1NC(=O)NCc1[nH]nc(-c2ccc(F)cc2)c1-c1ccncc1 [Example B-0169] | 21 | – | inhibition at 1 µM (human p38 kinase alpha): 43%
O=C(Cc1cccc2ccccc12)NCc1[nH]nc(-c2ccc(F)cc2)c1-c1ccncc1 [Example B-0171] | 21 | – | inhibition at 10 µM (human p38 kinase alpha; @ 10.0 uM): 61%
O=C(NCc1[nH]nc(-c2ccc(F)cc2)c1-c1ccncc1)Nc1ccc(OC(F)(F)F)cc1 [Example B-0172] | 11 | – | inhibition at 10 µM (human p38 kinase alpha; @ 10.0 uM): 16%
O=C(NCc1[nH]nc(-c2ccc(F)cc2)c1-c1ccncc1)Nc1ccccc1 [Example B-0175] | 31 | – | inhibition at 10 µM (human p38 kinase alpha; @ 10.0 uM): 41%
O=C(NCc1[nH]nc(-c2ccc(F)cc2)c1-c1ccncc1)Nc1ccccc1-c1ccccc1 [Example B-0181] | 2 | – | inhibition at 1 µM (human p38 kinase alpha): 5%
O=C(NCc1[nH]nc(-c2ccc(F)cc2)c1-c1ccncc1)Nc1ccccc1OC(F)(F)F [Example B-0185] | 25 | – | inhibition at 10 µM (human p38 kinase alpha; @ 10.0 uM): 65%
Cc1cc(C)c(NC(=O)NCc2[nH]nc(-c3ccc(F)cc3)c2-c2ccncc2)c(C)c1 [Example B-0186] | 25 | – | inhibition at 1 µM (human p38 kinase alpha): 40%
COc1cc(OC)c(NC(=O)NCc2[nH]nc(-c3ccc(F)cc3)c2-c2ccncc2)cc1Cl [Example B-0187] | 14 | – | inhibition at 10 µM (human p38 kinase alpha; @ 10.0 uM): 4%
CCOC(=O)C(CC(C)C)NC(=O)NCc1[nH]nc(-c2ccc(F)cc2)c1-c1ccncc1 (stereo not drawn) [Example B-0189] | 9 | – | inhibition at 10 µM (human p38 kinase alpha; @ 10.0 uM): 42%
COc1ccc(NC(=O)NCc2[nH]nc(-c3ccc(F)cc3)c2-c2ccncc2)cc1 [Example B-0190] | 31 | – | inhibition at 10 µM (human p38 kinase alpha; @ 10.0 uM): 59%
COc1cc(NC(=O)NCc2[nH]nc(-c3ccc(F)cc3)c2-c2ccncc2)cc(OC)c1OC [Example B-0191] | 29 | – | inhibition at 1 µM (human p38 kinase alpha): 40%
O=C(NCc1[nH]nc(-c2ccc(F)cc2)c1-c1ccncc1)[C@@H]1CCCN1C(=O)OCC1c2ccccc2-c2ccccc21 [Example B-0195] | 55 | 1.03 | –
O=C(NCc1[nH]nc(-c2ccc(F)cc2)c1-c1ccncc1)[C@H]1CCCN1 [Example B-0196] | – | 2.24 | IC50 (TNF-α): > 1 µM
O=C(NCc1[nH]nc(-c2ccc(F)cc2)c1-c1ccncc1)[C@H]1CCCN1C(=O)OCC1c2ccccc2-c2ccccc21 [Example B-0197] | 14 | 2 | –
O=C(NCc1[nH]nc(-c2ccc(F)cc2)c1-c1ccncc1)c1ccccn1 [Example B-0198] | 2 | 1.2 | –

SMILES | inhibition at 1 µM (TNF-α) [%] | IC50 (human p38 kinase alpha) [µM] | further results
O=C(NCc1[nH]nc(-c2ccc(F)cc2)c1-c1ccncc1)c1ccncc1 [Example B-0199] | 3 | 1.34 | –
O=C(NCc1[nH]nc(-c2ccc(F)cc2)c1-c1ccncc1)c1cccnc1 [Example B-0200] | 16 | 1.31 | –
CC(Oc1ccccc1)C(=O)NCc1[nH]nc(-c2ccc(F)cc2)c1-c1ccncc1 (stereo not drawn) [Example B-0202] | – | 0.55 | IC50 (TNF-α): 2.26 µM
CCCOC(=O)NCc1[nH]nc(-c2ccc(F)cc2)c1-c1ccncc1 [Example B-0203] | 65 | 0.16 | –
CCOC(=O)NCc1[nH]nc(-c2ccc(F)cc2)c1-c1ccncc1 [Example B-0204] | 48 | 0.21 | –
CC(C)OC(=O)NCc1[nH]nc(-c2ccc(F)cc2)c1-c1ccncc1 [Example B-0205] | 54 | 0.096 | –
O=C(NCc1[nH]nc(-c2ccc(F)cc2)c1-c1ccncc1)c1cnc2ccccc2n1 [Example B-0206] | 14 | 5.76 | –
COC(=O)NCc1[nH]nc(-c2ccc(F)cc2)c1-c1ccncc1 [Example B-0207] | 52 | 0.12 | –
O=C(NCc1[nH]nc(-c2ccc(F)cc2)c1-c1ccncc1)c1ccco1 [Example B-0209] | 8 | 0.29 | –
O=C(NCc1[nH]nc(-c2ccc(F)cc2)c1-c1ccncc1)C(F)(F)F [Example B-0210] | 67 | 0.057 | –
CNC(=O)NCc1[nH]nc(-c2ccc(F)cc2)c1-c1ccncc1 [Example B-0211] | 30 | 0.25 | –
CCNC(=O)NCc1[nH]nc(-c2ccc(F)cc2)c1-c1ccncc1 [Example B-0212] | 28 | 0.12 | –
CCCNC(=O)NCc1[nH]nc(-c2ccc(F)cc2)c1-c1ccncc1 [Example B-0213] | 39 | 0.31 | –
NC(=O)NCc1[nH]nc(-c2ccc(F)cc2)c1-c1ccncc1 [Example B-0214] | 50 | 0.16 | –
CC(=O)Nc1nc(C)c(S(=O)(=O)NCc2[nH]nc(-c3ccc(F)cc3)c2-c2ccncc2)s1 [Example B-0222] | 29 | 0.4 | –
CC(=O)Nc1ccc(S(=O)(=O)NCc2[nH]nc(-c3ccc(F)cc3)c2-c2ccncc2)cc1 [Example B-0223] | 1 | 0.2 | –
O=S(=O)(NCc1[nH]nc(-c2ccc(F)cc2)c1-c1ccncc1)c1ccc(Cl)cc1 [Example B-0225] | 37 | 0.047 | –
O=S(=O)(NCc1[nH]nc(-c2ccc(F)cc2)c1-c1ccncc1)c1cccc(Cl)c1Cl [Example B-0230] | 30 | 0.041 | –
O=S(=O)(NCc1[nH]nc(-c2ccc(F)cc2)c1-c1ccncc1)c1ccc(F)cc1Cl [Example B-0231] | 40 | 0.055 | –
Cc1ccc(F)cc1S(=O)(=O)NCc1[nH]nc(-c2ccc(F)cc2)c1-c1ccncc1 [Example B-0232] | 24 | 0.048 | –
O=S(=O)(NCc1[nH]nc(-c2ccc(F)cc2)c1-c1ccncc1)c1c(Cl)cccc1Cl [Example B-0233] | 43 | 0.095 | –
O=S(=O)(NCc1[nH]nc(-c2ccc(F)cc2)c1-c1ccncc1)c1cccc(Br)c1 [Example B-0235] | 90 | 1.31 | –
